SMILES | melting point [°C]
NCCCNc1nccc(NC(N)=NCC(F)(F)F)n1 | 159
CC(CCCc1ccc(F)cc1)c1cc(NS(C)(=O)=O)c2c(c1)OC(C)(C)c1ccncc1-2 (configuration not stated) | 208 to 209
O=C(NCCO[N+](=O)[O-])c1csc(C(=O)NCCO[N+](=O)[O-])n1 | 136 to 138
CCOC(=O)c1cn(C)c2nc3cc(F)c(F)cc3cc2c1=O | 323 to 324
Cc1cccc2c1C(=O)c1cc(CC(=O)O)ccc1OC2 | 183 to 185
Cn1cnc2c(Cl)ncnc21 | 205 to 207
Cc1nc(Sc2ccccn2)sc1CC(=O)O | 140 to 142
O=C(O)C1(N(Cc2noc(=O)[nH]2)S(=O)(=O)c2ccc(-c3ccc(Cl)cc3)cc2)CC1c1ccccc1 (configuration not stated) | 168 to 172
CN1CCc2c(O)ccc(Cl)c2CC1 | 178 to 180
COC(=O)[C@@H](O)[C@H](CC(C)C)NC(=O)OC(C)(C)C | 84 to 85
COC(=O)C(=O)c1ccc(OCC(=O)c2ccc3ccccc3c2)cc1 | 120 to 121
COc1ccc(-c2[nH]nc3c2C(=O)c2c(NC(C)=O)cccc2-3)cc1 | 174 to 175
COC1CCC2(C)C(CCC3C2CCC2(C)C(C(C)=O)CCC32)C1 (configuration not stated) | 125 to 126
O=C(Nc1ccc(Cl)cc1Cl)c1cc(Cl)c(Cl)[nH]1 | 262 to 264
CCCCCCCOc1ccc(C(=O)CCC(=O)O)cc1 | 104 to 106
CCCc1c(O)ccc2oc(C(=O)OCC)cc12 | 99 to 101
CNC(=O)C(Cc1ccc(OC)cc1)NC(=O)C(CC(C)C)C(S)CC(=O)NCC(N)=O (configuration not stated) | 247 to 252
CCOC(=O)c1cn(C2CC2)c2c(F)c(/C=C\c3cc(Cc4cnc(N)nc4N)cc(OC)c3OC)c(F)cc2c1=O | > 220
COc1cc(C(=O)CC(=O)C(C)(C)C)cc(OC)c1OC | 67.3 to 68.4
CCCn1c(CCOC)nc2c(N)nc3cc(OC(=O)NC(C)C)ccc3c21 | 144 to 146
Oc1nsc(OC2CCCCC2)n1 | 105
CCN(CC)CC(O)c1cccc2c(C)c(C)oc12 (configuration not stated) | 138 to 142
Cc1cc(C)cc(OCC(=O)c2ccccc2)c1 | 104 to 105
O=C(O)/C(=C/c1cnc(-c2ccccc2)n1Cc1ccccc1Cl)Cc1ccccc1 | 211 to 213

Further lines, results first:

melting point [°C] | SMILES
146 to 148 | CCOC(=O)N1CCN(c2nc(C)nc3c2OCC(=O)N3CC(O)CO)CC1 (configuration not stated)
148 | O=c1c2ccccc2c(-c2ccccc2)cn1CC1CO1 (configuration not stated)
48 to 50 | COc1ccc2c(c1)C(CC#N)=CCC2
234 | CCOC(=O)C1=C(N)NC2=C(C(=O)CCC2)C1c1cccc(C(=O)OCC)c1 (configuration not stated)
155 to 158 | CN1CCN(c2ccc(Nc3nc(N)c(C(=O)c4c(F)cccc4C(F)(F)F)s3)cc2)CC1
214 to 217 | O=C(O)C1=Cc2cc(Cl)c(S(=O)c3ccc(Cl)cc3)cc2OC1C(F)(F)F (configuration not stated)
64 | CCCc1ccc(-c2ccc(-c3ccc(F)s3)c(F)c2)cc1
119 to 121 | CC(=O)N1CCS(=O)c2cccc(Cl)c2C1 (configuration not stated)
222 to 224 | CCCNC(=S)N1CCc2cc(S(=O)(=O)N3CC(c4ccccc4)NC3=O)ccc21 (configuration not stated)
124 to 125 | O=C1Nc2ccccc2N(CCCCCCN2CCCCC2)c2ccccc21
147 to 149 | CON=C(c1ccccc1)c1ccc2c(c1)NC(=O)CO2
148 to 150 | COc1ccc2c(cccc2[C@H]2CO[C@H](CCCNC(=O)OCC(N)=O)OC2)c1
107 to 109 | N#CCCN1CCC(C2(c3ccc(F)cc3)OCCO2)CC1
93 to 96 | CO[C@]1(c2cccc(Sc3ccc4c(ccc(=O)n4C)c3)c2)CCO[C@@H](C)C1
73 to 74 | Nc1ccc(CN2CCSC2)cc1
177 to 179 | Cc1cnc2c(c1)c(C#N)c(-c1ccc(S(=O)(=O)N[C@@H](C)C(F)(F)F)cn1)n2C1CCC1
218 | O=C1CCc2ccc(OCCCCOc3ccc4c(c3)NC(=O)CC4)cc2N1
65 to 70 | Cc1ccccc1CCCc1c(C(C)C)nc(C(C)C)c(CO)c1-c1ccc(F)cc1
